Test results: PubChem BioAssay AID328 (DTP/NCI, 2004)
Several values for one entry are separate records, joined by “and”; a condition that tells them apart may be missing. Identical values can stand only once. Inconclusive results and toxic doses are left out.

Tested on: BDF1 mice, P388 leukemia ip, median survival T/C
Test: NCI In Vivo Anticancer Drug Screen. Data for tumor model P388 Leukemia (intraperitoneal) in B6D2F1 (BDF1) mice
Conditions: endpoint: median survival time, higher = longer survival
Summary of the method: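 Vehicle-dosed animals serve as the reference; survival of compound-dosed, tumour-implanted mice is divided by it.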

[1] = dose: 50.0 mg/kg/injection, schedule: Q01DX009 (ip), vehicle: Klucel (hydroxypropylcellulose) (HPC)
[2] = dose: 100.0 mg/kg/injection, schedule: Q01DX009 (ip), vehicle: Klucel (hydroxypropylcellulose) (HPC)
[3] = dose: 200.0 mg/kg/injection, schedule: Q01DX009 (ip), vehicle: Klucel (hydroxypropylcellulose) (HPC)
[4] = dose: 50.0 mg/kg/injection, schedule: Q01DX009 (ip), vehicle: saline with Tween-80
[5] = dose: 100.0 mg/kg/injection, schedule: Q01DX009 (ip), vehicle: saline with Tween-80
[6] = dose: 200.0 mg/kg/injection, schedule: Q01DX009 (ip), vehicle: saline with Tween-80
[7] = dose: 100.0 mg/kg/injection, schedule: Q04DX003 (ip), vehicle: Klucel (hydroxypropylcellulose) (HPC)
[8] = dose: 200.0 mg/kg/injection, schedule: Q04DX003 (ip), vehicle: Klucel (hydroxypropylcellulose) (HPC)
[9] = dose: 400.0 mg/kg/injection, schedule: Q04DX003 (ip), vehicle: Klucel (hydroxypropylcellulose) (HPC)
[10] = dose: 12.5 mg/kg/injection, schedule: Q01DX009 (ip), vehicle: Klucel (hydroxypropylcellulose) (HPC)
[11] = dose: 25.0 mg/kg/injection, schedule: Q01DX009 (ip), vehicle: Klucel (hydroxypropylcellulose) (HPC)
[12] = dose: 100.0 mg/kg/injection, schedule: Q01DX009 (ip), vehicle: other
[13] = dose: 100.0 mg/kg/injection, schedule: Q04DX003 (ip), vehicle: saline with Tween-80
[14] = dose: 200.0 mg/kg/injection, schedule: Q04DX003 (ip), vehicle: saline with Tween-80
[15] = dose: 400.0 mg/kg/injection, schedule: Q04DX003 (ip), vehicle: saline with Tween-80

Structure (SMILES): COc1cc2c(cc1OC)C(C)=NCC2
- T/C (dose: 3.0 mg/kg/injection, schedule: Q01DX001 (ip), vehicle: saline): 104 % of control
- T/C (dose: 6.0 mg/kg/injection, schedule: Q01DX001 (ip), vehicle: saline): 104 % of control
- T/C (dose: 12.0 mg/kg/injection, schedule: Q01DX001 (ip), vehicle: saline): 108 % of control
- T/C (dose: 12.0 mg/kg/injection, schedule: Q01DX009 (ip), vehicle: saline): 100 % of control
- T/C (dose: 12.0 mg/kg/injection, schedule: Q04DX003 (ip), vehicle: saline): 95 % of control
- T/C (dose: 25.0 mg/kg/injection, schedule: Q01DX001 (ip), vehicle: saline): 104 % of control
- T/C (dose: 25.0 mg/kg/injection, schedule: Q01DX009 (ip), vehicle: saline): 100 % of control
- T/C (dose: 25.0 mg/kg/injection, schedule: Q04DX003 (ip), vehicle: saline): 104 % of control
- T/C (dose: 50.0 mg/kg/injection, schedule: Q01DX001 (ip), vehicle: saline): 108 % of control
- T/C (dose: 50.0 mg/kg/injection, schedule: Q01DX009 (ip), vehicle: saline): 95 % of control
- T/C (dose: 50.0 mg/kg/injection, schedule: Q04DX003 (ip), vehicle: saline): 100 % of control

Structure (SMILES): C=C(C)C12OC3(c4ccccc4)OC1C1C4OC4(CO)C(O)C4(O)C(=O)C(C)=CC4C1(O3)C(C)C2OC(=O)c1ccccc1 (configuration not stated)
- T/C (dose: 6.3 micrograms/kg/injection, schedule: Q01DX009 (ip), vehicle: saline + alcohol): 106 % of control
- T/C (dose: 12.5 micrograms/kg/injection, schedule: Q01DX009 (ip), vehicle: saline + alcohol): 108 % of control
- T/C (dose: 200.0 micrograms/kg/injection, schedule: Q01DX009 (ip), vehicle: saline + alcohol): 150 % of control

Structure (SMILES): Cc1ccccc1NS(=O)(=O)c1c([N+](=O)[O-])ncn1C
- T/C [1]: 110 % of control
- T/C [2]: 116 % of control
- T/C [3]: 116 % of control
- T/C (dose: 400.0 mg/kg/injection, schedule: Q01DX009 (ip), vehicle: Klucel (hydroxypropylcellulose) (HPC)): 95 % of control

Structure (SMILES): S=C1NC2=S(N=C(Nc3ccccc3)N2c2ccccc2)S1 (configuration not stated)
- T/C [4]: 94 % of control
- T/C [5]: 96 % of control
- T/C [6]: 93 % of control

Structure (SMILES): Cc1nc2[nH][nH]c(=O)c2nc1C
- T/C [2]: 100 % of control
- T/C [7]: 104 % of control
- T/C [3]: 110 % of control
- T/C [8]: 92 % of control
- T/C [9]: 100 % of control

Structure (SMILES): CCOC(=O)c1cnc(N(C)C)[nH]c1=O
- T/C [10]: 103 % of control
- T/C [11]: 95 % of control
- T/C [1]: 86 % of control

Structure (SMILES): CCCCN(CCCC)CCC(O)c1cc(-c2ccc(C(F)(F)F)cc2)nc(C(F)(F)F)c1 (configuration not stated)
- T/C [4]: 106 % of control

Structure (SMILES): CN=NNCc1ccccc1
- T/C (dose: 12.5 mg/kg/injection, schedule: Q01DX005 (ip), vehicle: saline): 117 % of control
- T/C (dose: 25.0 mg/kg/injection, schedule: Q01DX005 (ip), vehicle: saline): 86 % of control

Structure (SMILES): O=C1c2ccccc2C(=O)c2c(NCCCCCO)ccc(NCCCCCO)c21
- T/C (dose: 25.0 mg/kg/injection, schedule: Q01DX009 (ip), vehicle: other): 88 % of control
- T/C [12]: 88 % of control

Structure (SMILES): ClC1=C(Cl)C2(Cl)C3COCC3C1(Cl)C2(Cl)Cl (configuration not stated)
- T/C (dose: 100.0 mg/kg/injection, schedule: Q01DX001 (ip), vehicle: Klucel (hydroxypropylcellulose) (HPC)): 113 % of control
- T/C [7]: 104 % of control
- T/C (dose: 200.0 mg/kg/injection, schedule: Q01DX001 (ip), vehicle: Klucel (hydroxypropylcellulose) (HPC)): 113 % of control
- T/C [8]: 100 % of control and 108 % of control
- T/C (dose: 400.0 mg/kg/injection, schedule: Q01DX001 (ip), vehicle: Klucel (hydroxypropylcellulose) (HPC)): 104 % of control
- T/C [9]: 100 % of control

Structure (SMILES): O=[N+]([O-])c1ccccc1CSc1ncnc2nc[nH]c12
- T/C [13]: 100 % of control
- T/C (dose: 132.0 mg/kg/injection, schedule: Q01DX009 (ip), vehicle: saline with Tween-80): 104 % of control
- T/C [6]: 100 % of control
- T/C [14]: 108 % of control
- T/C (dose: 300.0 mg/kg/injection, schedule: Q01DX009 (ip), vehicle: saline with Tween-80): 86 % of control
- T/C [15]: 116 % of control

Structure (SMILES): Cc1ccc(C)c(NC(=O)c2ccc(Cl)cc2)c1
- T/C (dose: 100.0 mg/kg/injection, schedule: Q01DX001 (ip), vehicle: saline with Tween-80): 104 % of control
- T/C (dose: 200.0 mg/kg/injection, schedule: Q01DX001 (ip), vehicle: saline with Tween-80): 104 % of control
- T/C (dose: 400.0 mg/kg/injection, schedule: Q01DX001 (ip), vehicle: saline with Tween-80): 100 % of control

Structure (SMILES): O=C1N=C2C=CC=CN2CC1O (configuration not stated)
- T/C [13]: 104 % of control
- T/C [14]: 112 % of control
- T/C [15]: 100 % of control

Structure (SMILES): O=C1NC(=O)C2(CCCCCC2)N1
- T/C [4]: 100 % of control
- T/C (dose: 50.0 mg/kg/injection, schedule: Q04DX003 (ip), vehicle: saline with Tween-80): 112 % of control
- T/C [5]: 112 % of control
- T/C (dose: 100.0 mg/kg/injection, schedule: Q04DX003 (ip), vehicle: saline sonified): 95 % of control
- T/C [13]: 104 % of control
- T/C [6]: 108 % of control
- T/C (dose: 200.0 mg/kg/injection, schedule: Q04DX003 (ip), vehicle: saline sonified): 95 % of control
- T/C [14]: 100 % of control
- T/C (dose: 400.0 mg/kg/injection, schedule: Q04DX003 (ip), vehicle: saline sonified): 104 % of control

Structure (SMILES): C[N+]1(C)N=C([O-])N(CCCCCCN2C(=O)[N+](C)(C)N=C2[O-])C1=O
- T/C (dose: 100.0 mg/kg/injection, schedule: Q04DX003 (ip), vehicle: suspension in saline): 94 % of control
- T/C (dose: 200.0 mg/kg/injection, schedule: Q04DX003 (ip), vehicle: suspension in saline): 96 % of control
- T/C (dose: 400.0 mg/kg/injection, schedule: Q04DX003 (ip), vehicle: suspension in saline): 98 % of control

Structure (SMILES): Nc1nc(N=Nc2ccc(O)cc2)cc(=O)[nH]1
- T/C (dose: 50.0 mg/kg/injection, schedule: Q01DX009 (ip), vehicle: other): 106 % of control
- T/C [12]: 110 % of control
- T/C (dose: 200.0 mg/kg/injection, schedule: Q01DX009 (ip), vehicle: other): 103 % of control
- T/C (dose: 400.0 mg/kg/injection, schedule: Q01DX009 (ip), vehicle: other): 112 % of control

Structure (SMILES): CN(C)c1ccc(/C=N/Nc2ncnc3nc[nH]c23)cc1
- T/C [13]: 103 % of control
- T/C [14]: 96 % of control
- T/C [15]: 103 % of control

Structure (SMILES): CN(C)CCCNC1=C(Cl)C(=O)c2ccccc2C1=O
- T/C (dose: 6.25 mg/kg/injection, schedule: Q01DX009 (ip), vehicle: Klucel (hydroxypropylcellulose) (HPC)): 114 % of control
- T/C [10]: 109 % of control
- T/C [11]: 116 % of control

Structure (SMILES): CC1(C)N=C(N)Nc2nnc(-c3cccc(Cl)c3)n21
- T/C (dose: 100.0 mg/kg/injection, schedule: Q01DX001 (ip), vehicle: saline sonified): 105 % of control
- T/C (dose: 200.0 mg/kg/injection, schedule: Q01DX001 (ip), vehicle: saline sonified): 100 % of control
- T/C (dose: 400.0 mg/kg/injection, schedule: Q01DX001 (ip), vehicle: saline sonified): 100 % of control

Structure (SMILES): COc1ccc(C(CC(=O)c2ccc3c(c2)OCO3)c2c(O)c3ccccc3oc2=O)cc1OC (configuration not stated)
- T/C (dose: 25.0 mg/kg/injection, schedule: Q01DX009 (ip), vehicle: saline with Tween-80): 89 % of control
- T/C [4]: 91 % of control

Structure (SMILES): O=C1NC(O)c2cc(CO)ccc2O1 (configuration not stated)
- T/C (dose: 50.0 mg/kg/injection, schedule: Q01DX005 (ip), vehicle: saline with Tween-80): 100 % of control
- T/C (dose: 100.0 mg/kg/injection, schedule: Q01DX005 (ip), vehicle: saline with Tween-80): 104 % of control
- T/C (dose: 200.0 mg/kg/injection, schedule: Q01DX005 (ip), vehicle: saline with Tween-80): 109 % of control

Structure (SMILES): O=c1nc(-c2ccccc2)nc2ccccn12
- T/C [4]: 101 % of control
- T/C [5]: 106 % of control
- T/C [6]: 111 % of control

Structure (SMILES): CCCCNC1=C(N2CC2)C(=O)C(NCCCC)=C(N2CC2)C1=O
- T/C (dose: 1.25 mg/kg/injection, schedule: Q01DX009 (ip), vehicle: saline): 107 % of control
- T/C (dose: 5.0 mg/kg/injection, schedule: Q01DX009 (ip), vehicle: saline): 87 % of control
